Measurements: patent US20050042714A1, “Glycoconjugates of sialic acid derivates, methods for their production and use thereof” (priority 2001, published 2005)

Columns and labels:
[1] = test system: B-lymphotropic papovavirus (LPV) in BJA-B K88 cells; assay: LPV infection of analogue-treated normally sialylated cells (VP1 ELISA); format: cell-based, human
Description: (§1) Changes in permissivity for the sialic acid-dependent B-lymphotropic papovavirus (LPV) in hyposialylated (K20) and normally sialylated (K88) BJA-B cells after treatment with sialic acid analogues. Cells were treated with analogues or NeuAc for 3d. 50 h post LPV inoculation the LPV infection was quantified (A) by detecting the amount of LPV VP1 in cell lysates relative to the total protein content by ELISA and (B) by indirect immunofluorescence microscopy as percentage of LPV T-antigen-positive BJA-B K20 cells. A, values are given as arithmetic means±SD of three independent experiments. B, representatives of three experiments are shown. DAPI-staining (left) indicates the total amount of cells in the section, on the right LPV T-antigen positive cells are shown with the average percentage given beside. […]
(§2) BJA-B subclones were infected with the B-lymphotropic papovavirus (LPV) as described (Keppler, O. T., Herrmann, M., Oppenländer, M., Meschede, W., and Pawlita, M. (1994) J Virol 68(11), 6933-9). […] LPV infection was quantified by indirect immunofluorescence microscopy as percentage of LPV T-antigen positive cells and the amount of LPV VP1 in cell lysates was determined by ELISA relative to the total protein extracted.

HL60-I cells [2] = assay: uptake of peracetylated/esterified NeuAc: VVA and TML lectin staining by flow cytometry; format: cell-based, human; conditions: HL60-I cells, 0.03 to 1 mM (NeuAc 1 or 5 mM), 72 h, 0.5% DMSO
Description: Peracetylation of NeuAc only facilitates uptake if the carboxyl group is additionally esterified. Hyposialylated HL60-I cells were cultivated in the presence of indicated synthetic sialic acid analogue (stock solution 200 mM in DMSO) ranging from 0.03 to 1 mM or 0, 1 or 5 mM NeuA for 72 h with DMSO concentrations adjusted to 0.5%. Cells were stained with either directly fluorochrome-coupled lectin VVA, or biotin-coupled lectin (TML) and streptavidin-FITC for analysis by flow cytometry. Values given are relative factors of change of the mean fluorescence intensity of pretreated cells relative to untreated cells. The bars represent arithmetic means±SD (n=3). Molecular structures are given below the diagram.
Sugars are very hydrophilic and it has been shown that increasing the hydrophobicity by peracetylation of hydroxyl groups enables or facilitates uptake of disaccharides (Collins, B. E., Fralich, T. J., Itonori, S., Ichikawa, Y. and Schnaar, R. L. (2000) Glycobiology, 10, 11-20; Sarkar, A. K., Fritz, T. A., Taylor, W. H. and Esko, J. D. (1995) Proc Natl Acad Sci USA, 92, 3323-7; Sarkar, A. K., Rostand, K. S., Jain, R. K., Matta, K. L. and Esko, J. D. (1997) J Biol Chem, 272, 25608-16). For ManNAc derivatives it has been shown that peracetylation reduces required medium concentrations (Collins et al., 2000). The acetyl groups are cleaved-off intracellularly by cellular esterases (Collins et al., 2000; Sarkar et al., 1995; Sarkar et al., 1997) and the derivatives are then processed as known for the non-acetylated sugars. In order to address the question whether peracetylation also facilitates uptake of N-acetylneuraminic acid, HL60-I cells were cultivated in the presence of peracetylated NeuAc at concentrations ranging from 0.03 mM to 1 mM for 3 days. Changes in cell surface sialylation were measured by flow cytometry using Vicia Villosa agglutinin (VVA) and Tritrichomonas mobilensis lectin (TML). […] This represents a reduction in concentration by more than 16-fold and is in a similar range as reported for peracetylated ManNAc and ManNAc (Collins et al., 2000).
(§3) Lyophilized FITC-conjugated lectins Vicia villosa (VVA) was obtained from Sigma, dissolved in H2O (1 mg/ml), aliquoted and stored at −20° C. according to the manufacturer's instructions. FITC-conjugated Limax flavus agglutinin (LFA) was from EY Laboratories (San Manteo, Calif., USA) and biotin-coupled Tritrichomonas mobilensis agglutinin (TLM) from Calbiochem. Lectin staining procedure and fluorescence-activated cell scanning on a Becton Dickinson FACScan cytometer using Cellquest II software were carried out as described (Keppler, O. T., Molden-hauer, G., Oppenländer, M., Schwartz-Albiez, R., Berger, E. G., Funderud, S., and Pawlita, M. (1992) Eur J Immunol 22(11), 2777-81). Briefly, cells (3×10^5) were washed twice in cold PBS and then incubated in 100 μl PBS/0.05% NaN3, containing either fluorochrome-conjugated lectins VVA (50 μg/ml), LFA (20 μg/ml), or biotinylated TLM (20 μg/ml) for 45 min on ice in the dark. For biotinylated TLM a secondary incubation step with steptavidin-FITC (20 μg/ml) (Sigma) for 30 min on ice in the dark is required. After washing with PBS, cells were resuspended in 300 μl PBS and analyzed by flow cytometry.

HL60-I cells [3] = assay: metabolic complementation assay: lectin staining (VVA, LFA, TLM) of analogue-treated cells by flow cytometry; format: cell-based, human; conditions: 5 mM, 24 h; for effect on VVA binding: decrease = masking of GalNAc by sialic acid
Description: Medium supplementation with some synthetic sialic acid analogues restores cell surface sialylation in hyposialylated HL60-I cells. Cells were cultivated in the presence of indicated synthetic sialic acid analogue (5 mM) for 24 h and stained with either directly fluorochrome-coupled lectins (VVA, LFA) or biotin-coupled lectin (TLM) and streptavidin-FITC and analyzed by flow cytometry. Values are given as “relative factor of change” (RFC) of the “mean fluorescence intensity” (MFI) of sialic acid-treated cells relative to untreated cells. The bars represent arithmetic means±SD (n^34) of one (x) or ≧two experiments.
To test whether cells can incorporate synthetic sialic acid analogues from the culture medium, a metabolic complementation assay was performed on endogenously hyposialylated, UDP-GlcNAc-2-epimerase-deficient HL60-I cells.
Cells were cultivated for 24 h in the presence of one of 16 different synthetic sialic acid analogues, carrying distinct C5 or C9 modifications (FIG. 1), and subsequently, changes in cell surface sialylation were assessed by flow cytometry using three fluorochrome-conjugated sialic acid-sensitive lectins. Vicia villosa agglutinin (VVA) detects GalNAc residues, and its binding sites can be masked by the addition of terminal sialic acid residues.
In sugar supplementation assays, cells seeded at 5×10^5 cells/ml in culture medium buffered with 40 mM HEPES (pH 7.2) were cultivated for 24 h in the presence or absence of 5 mM sialic acids (stocks of 100 mM dissolved in H2O, stored at 4° C.).
as §3

[4] = test system: B-lymphotropic papovavirus (LPV) in BJA-B K20 cells; conditions: NeuAc treatment, stated as known; cited from earlier work
[5] = test system: B-lymphotropic papovavirus (LPV) in BJA-B K20 cells; assay: LPV infection of analogue-treated hyposialylated cells (VP1 ELISA, T-antigen immunofluorescence); format: cell-based, human; conditions: BJA-B K20 cells (statement also covers K88 cells)
Description: as §1, §2

| Compound | LPV-permissivity [1] | effect on cell surface sialylation (VVA and TML binding) (HL60-I cells [2]) | increase of LFA binding (relative factor of change of mean fluorescence intensity vs untreated cells) (HL60-I cells [3]) | increase of TLM binding (relative factor of change of mean fluorescence intensity vs untreated cells) (HL60-I cells [3]) | effect on VVA binding (HL60-I cells [3]) | cells infected by LPV [4] | LPV-permissivity [5] | effect on LFA binding (HL60-I cells [3]) | effect on TLM binding (HL60-I cells [3]) |
| --- | --- | --- | --- | --- | --- | --- | --- | --- | --- |
| CC(=O)N[C@H]1[C@H]([C@H](O)[C@H](O)CO)OC(O)(C(=O)O)C[C@@H]1O (stereo partly shown) [NeuAc, N-acetyl neuraminic acid, reference compound] | did not change permissivity significantly | significant changes in lectin binding | 9.5 fold | 4.8 fold | decreased markedly | about 17% |  |  |  |
| CC(=O)N[C@H]1[C@H]([C@H](O)[C@@H](C)O)OC(O)(C(=O)O)C[C@@H]1O (stereo partly shown) [analogue a, 5-N-acetyl-9-deoxy-neuraminic acid] |  |  |  |  | significantly decreased VVA-binding |  | to a lesser extent | increased binding of LFA | increased binding |
